Data reported in the supplement of paper PMC10307832.

Columns and labels:
Experiment in all cases: relative viability (nuclei count vs DMSO), 5 days (fraction); higher = more cells survive
GW-2580 + Vorinostat = compound: COC1=CC=C(C=C1)COC2=C(C=C(C=C2)CC3=CN=C(N=C3N)N)OC [GW-2580] + O=C(CCCCCCC(=O)Nc1ccccc1)NO [Vorinostat] (partner 1 µM)
How it was run: (§1)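 Each reported value is a median over duplicate plates. It expresses relative viability: treated-well nuclei count divided by vehicle-well nuclei count. Lung cancer cell lines in 1536-well plates were dosed by pin tool a day after seeding, alone with one drug or with a fixed anchor-drug dose plus five library-drug doses (not always all listed) in √10 steps, and nuclei were counted after 5 days.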

Fedratinib + Luminespib = compound: Cc1cnc(Nc2ccc(OCCN3CCCC3)cc2)nc1Nc1cccc(S(=O)(=O)NC(C)(C)C)c1 [Fedratinib] + CCNC(=O)c1noc(-c2cc(C(C)C)c(O)cc2O)c1-c1ccc(CN2CCOCC2)cc1 [Luminespib] (partner 0.01 µM)
How it was run: as §1

Fedratinib + OSI-027 = compound: Cc1cnc(Nc2ccc(OCCN3CCCC3)cc2)nc1Nc1cccc(S(=O)(=O)NC(C)(C)C)c1 [Fedratinib] + COc1cccc2cc(-c3nc([C@H]4CC[C@H](C(=O)O)CC4)n4ncnc(N)c34)[nH]c12 [OSI-027] (partner 0.5 µM)
How it was run: as §1

Fedratinib + Linsitinib = compound: Cc1cnc(Nc2ccc(OCCN3CCCC3)cc2)nc1Nc1cccc(S(=O)(=O)NC(C)(C)C)c1 [Fedratinib] + C[C@]1(O)C[C@@H](c2nc(-c3ccc4ccc(-c5ccccc5)nc4c3)c3c(N)nccn32)C1 [Linsitinib] (partner 1 µM)
How it was run: as §1

Fedratinib + Tozasertib = compound: Cc1cnc(Nc2ccc(OCCN3CCCC3)cc2)nc1Nc1cccc(S(=O)(=O)NC(C)(C)C)c1 [Fedratinib] + Cc1cc(Nc2cc(N3CCN(C)CC3)nc(Sc3ccc(NC(=O)C4CC4)cc3)n2)n[nH]1 [Tozasertib] (partner 0.1 µM)
How it was run: as §1

Fedratinib + Olaparib = compound: Cc1cnc(Nc2ccc(OCCN3CCCC3)cc2)nc1Nc1cccc(S(=O)(=O)NC(C)(C)C)c1 [Fedratinib] + O=C(c1cc(Cc2n[nH]c(=O)c3ccccc23)ccc1F)N1CCN(C(=O)C2CC2)CC1 [Olaparib] (partner 8 µM)
How it was run: as §1

Cell Line | relative viability (GW-2580 + Vorinostat; first compound 0.08 µM) | relative viability (GW-2580 + Vorinostat; first compound 0.8 µM) | relative viability (GW-2580 + Vorinostat; first compound 2.53 µM) | relative viability (GW-2580 + Vorinostat; first compound 8 µM) | relative viability (Fedratinib + Luminespib; first compound 0.1 µM) | relative viability (Fedratinib + Luminespib; first compound 0.3162 µM) | relative viability (Fedratinib + Luminespib; first compound 1 µM) | relative viability (Fedratinib + OSI-027; first compound 0.1 µM) | relative viability (Fedratinib + OSI-027; first compound 0.3162 µM) | relative viability (Fedratinib + OSI-027; first compound 1 µM) | relative viability (Fedratinib + Linsitinib; first compound 0.1 µM) | relative viability (Fedratinib + Linsitinib; first compound 0.3162 µM) | relative viability (Fedratinib + Linsitinib; first compound 1 µM) | relative viability (Fedratinib + Tozasertib; first compound 0.1 µM) | relative viability (Fedratinib + Tozasertib; first compound 0.3162 µM) | relative viability (Fedratinib + Tozasertib; first compound 1 µM) | relative viability (Fedratinib + Olaparib; first compound 0.1 µM) | relative viability (Fedratinib + Olaparib; first compound 0.3162 µM) | relative viability (Fedratinib + Olaparib; first compound 1 µM)
NCI-H838 | 0.789 | 0.782 | 0.691 | 0.771 | 0.454 | 0.379 | 0.334 | 0.31 | 0.471 | 0.259 | 1.01 | 1.05 | 0.984 | 0.248 | 0.271 | 0.21 | 0.677 | 0.837 | 0.6
HARA | 0.561 | 0.601 | 0.548 | 0.588 | 0.103 | 0.766 | 0.539 | 0.494 | 0.575 | 0.291 | 1.09 | 0.975 | 0.979 | 0.107 | 0.105 | 0.0905 | 0.785 | 0.826 | 0.557
NCI-H2087 | 0.802 | 0.807 | 0.696 | 0.715 | 0.17 | 0.18 | 0.14 | 0.486 | 0.453 | 0.425 | 1.02 | 0.923 | 0.859 | 0.205 | 0.206 | 0.179 | 0.534 | 0.49 | 0.425
NCI-H1437 | 0.923 | 0.918 | 0.674 | 0.534 | 1.11 | 1.04 | 1.13 | 0.911 | 0.924 | 0.825 | 1.03 | 0.978 | 0.884 | 0.398 | 0.417 | 0.368 | 0.627 | 0.645 | 0.598
NCI-H650 | 0.512 | 0.502 | 0.349 | 0.416 | 0.706 | 0.733 | 0.796 | 0.456 | 0.469 | 0.454 | – | 0.994 | 0.596 | 0.312 | 0.764 | 0.69 | 0.367 | 0.372 | 0.379
COR-L23 | 0.495 | 0.516 | 0.426 | 0.524 | 0.816 | 0.671 | 0.602 | 0.741 | 0.714 | 0.596 | 1.04 | 0.906 | 0.759 | 0.103 | 0.186 | 0.168 | 0.326 | 0.381 | 0.302
COR-L 105 | 0.833 | 0.926 | 0.561 | 0.697 | 0.753 | 0.743 | 0.78 | 0.633 | 0.649 | 0.497 | 0.951 | 0.817 | 0.827 | 0.362 | 0.361 | 0.338 | 0.669 | 0.693 | 0.708
LK-2 | 0.242 | 0.28 | 0.205 | 0.311 | 0.173 | 0.169 | 0.186 | 0.157 | 0.184 | 0.16 | 0.349 | 0.733 | 0.495 | 0.186 | 0.193 | 0.161 | 0.611 | 0.624 | 0.698
201T | 1.01 | 0.949 | 0.992 | 0.883 | 1 | 1.06 | 1.02 | 0.698 | 0.613 | 0.588 | 1.03 | 1.02 | 0.974 | 0.609 | 0.904 | 0.874 | 0.846 | 0.867 | 0.794
HCC-44 | 1.13 | 1.08 | 1.19 | 1.1 | 1.01 | 0.974 | 0.972 | 0.482 | 0.544 | 0.362 | 0.621 | 0.652 | 0.667 | 0.258 | 0.843 | 0.805 | 0.928 | 0.945 | 0.964
NCI-H596 | 0.591 | 0.595 | 0.495 | 0.564 | 0.962 | 1.2 | 0.875 | 0.577 | 0.727 | 0.746 | 1.01 | 1.08 | 1.08 | 0.899 | 0.878 | 0.916 | 0.643 | 0.6 | 0.572
H3255 | 0.802 | 0.875 | 0.75 | 0.771 | 0.913 | 0.932 | 0.59 | 0.521 | 0.671 | 0.565 | 1.04 | 1.03 | 0.926 | 0.578 | 0.537 | 0.655 | 0.532 | 0.518 | 0.522
NCI-H647 | 0.726 | 0.511 | 0.59 | 0.447 | 0.15 | 0.209 | 0.177 | 0.625 | 0.697 | 0.444 | 1.14 | 1.16 | 1.11 | 0.249 | 0.336 | 0.214 | 0.697 | 0.467 | 0.373
NCI-H2023 | 0.812 | 0.882 | 0.598 | 0.762 | 0.578 | 0.581 | 0.632 | 0.393 | 0.394 | 0.328 | 0.603 | 0.673 | 0.601 | 0.226 | 0.289 | 0.281 | 0.533 | 0.488 | 0.44
